The text below walks through data of US20090088373A1, “USE OF COMPOSITIONS TO ENHANCE INNATE IMMUNE RESPONSE” (priority 2007, published 2009).

For one experiment, the system named is HBD3. Description: HBD3 expression in normal human keratinocytes (NHEK). It is filed as cell-based. Details: unit not given here. Particulars: Example 2. How it is done: To assess the effect of pimecrolimus on the innate immune response of the epidermis, cultures of normal human keratinocytes (NHEK) are stimulated with combinations of a concentration of 10 nM pimecrolimus, 1 μg/ml TLR 2/CD14 ligand—peptidoglycan (PGN), 10 μg/ml lipoteichoic acid (LTA), 2 0.1 μg/ml TLR 2/6 ligand—Malp-, and/or 0.1 μg/ml TLR 4/CD14 ligand—lipopolysaccharide (LPS). Expression of cathelicidin mRNA (Table 3) and protein as well as Human Beta Defensin (HBD) 2 (Table 4) and HBD3 (Table 5) expression in normal human keratinocytes is measured.

In the next experiment the test system is TLR2. Description: TLR2 gene expression by qPCR in NHEK. As to conditions: for TLR2 mRNA expression (Mean): 10 nM pimecrolimus; for TLR2 mRNA expression (Means of N = 3): Example 6, 10 nM Pimecrolimus, 1 nM 1,25D3; for TLR2 gene expression (Mean): Example 8, 24 hours. In kind it is cell-based, human. The procedure: (§1) To assess the effect of pimecrolimus on the innate immune response of the epidermis, cultures of normal human keratinocytes (NHEK) are stimulated with a combination of a concentration of 10 nM pimecrolimus and of 1 nM 1.25D3. Gene expression of TLR1, TLR2, TLR4, TLR6 and CD14 are evaluated by qPCR. For CD14 protein expression, a Western Blot is performed and bands are quantified by densitometry using lmagej. Vehicle treated keratinocytes serve as controls. Cathelicidin protein expression is evaluated by immunofluorescence staining.
To assess the effect of pimecrolimus on the innate immune response of the epidermis, cultures of normal human keratinocytes (NHEK) are stimulated with a concentration of 10 nM pimecrolimus,1 nM 1.25 D3, 0.1 μg/ml TLR2/6 ligand Malp-2 or their combination. Expression of cathelicidin, CD14 and TLR2 mRNA normal human keratinocytes is measured and evaluated accordingly to the procedures as detailed in Example 2 above.
To assess the effect of time dependent effects of pimecrolimus on the innate immune response of the epidermis, cultures of normal human keratinocytes (NHEK) are stimulated with 10 nM Pimecrolimus and low dose calciferol (1,25D3) 1 nM for different time points. mRNA expression of cathelicidin, CD14 and TLR2 is analyzed by qPCR.
To assess the effect of calciferol on varying levels of pimecrolimus on the innate immune response of the epidermis, cultures of normal human keratinocytes (NHEK) are stimulated with 0.01 nM, 0.1 nM, 1 nM and 10 nM concentrations of pimecrolimus with or without 1 nM concentrations of calciferol for 24 hours. Expression of cathelicidin mRNA and gene expression of TLR2 is measured and evaluated accordingly to the procedures as detailed in Example 2 above.
A general note: Real-time PCR tracks product formation cycle by cycle.

The next experiment has as its system TLR1. The experiment is described as follows: TLR1 gene expression by qPCR in NHEK. In kind it is cell-based, human. As to conditions: Example 3; 10 nM pimecrolimus, 1 nM 1.25D3. The procedure: as §1

Take `CC[C@@H]1/C=C(\C)C[C@H](C)C[C@H](OC)[C@H]2O[C@@](O)(C(=O)C(=O)N3CCCC[C@H]3C(=O)O[C@H](/C(C)=C/[C@@H]3CC[C@H](Cl)[C@H](OC)C3)[C@H](C)[C@@H](O)CC1=O)[C@H](C)C[C@@H]2OC` [Pimecrolimus, pimecrolimus]: the “HBD3 expression (Mean)” value with HBD3 (with 10 nM Pimecrolimus + 0.1 μg/ml LPS) came out at 1.06; in the experiment with HBD3 (with 10 nM Pimecrolimus + 0.1 μg/ml Malp-2), 28.59; in the experiment on HBD3 (with 10 nM Pimecrolimus + 1 μg/ml PGN) it was 1.24; with HBD3 (with 10 nM Pimecrolimus + 10 μg/ml LTA), 0.72; with HBD3 (with 10 nM Pimecrolimus, no TLR ligand (control row)), 0.72. Further, the “TLR2 mRNA expression (Mean)” value in the experiment with TLR2 (Example 3, 1 nM 1.25D3) is listed as 1.80; in the experiment on TLR2 (Example 4, 1 nM 1.25 D3, 0.1 μg/ml Malp-2 or combination) it was 0.29. Besides, the “TLR2 mRNA expression (Means of N = 3)” value in the experiment on TLR2 (0 h) turned out to be 1.00; with TLR2 (8 h), 0.64; in the experiment on TLR2 (24 h), 1.31; in the experiment with TLR2 (48 h) it was 1.51. For the same molecule, the “TLR2 gene expression (Mean)” value in the experiment on TLR2 (0.01 nM PIM with 1 nM 1.25D3) worked out at 0.82; in the experiment on TLR2 (0.01 nM PIM, no 1.25D3), 0.73; in the experiment with TLR2 (0.1 nM PIM with 1 nM 1.25D3), 0.57; with TLR2 (0.1 nM PIM, no 1.25D3) it was 0.59; in the experiment with TLR2 (1 nM PIM with 1 nM 1.25D3), 1.07; in the experiment with TLR2 (1 nM PIM, no 1.25D3), 0.98. In addition, the “TLR2 gene expression (Mean)” value came out at 3.94 with TLR2 (10 nM PIM with 1 nM 1.25D3) and 1.80 in the experiment with TLR2 (10 nM PIM, no 1.25D3). For the same molecule, the “TLR2 expression (in words)” value in the experiment with TLR2 (in the presence of low dose 1,25D3 and Malp-2) is given as “increasing”. In addition, the “TLR1 mRNA expression (Mean)” value with TLR1 is given as 3.16.
